One experiment deals with MKN45 cells. The experiment can be described thus: MKN45 cell proliferation assay (Cell-Titer-Glo, 120 h). Format: cell-based. The conditions noted are these: for EC50: Homo sapiens, MKN-45, 120 h, Cell-Titer-Glo, read-out: MKN45 Cell Prolif. 120 hr (EC50); for MKN45 Cell Prolif. 120 hr (Ymin-Obs): minimal percent of DMSO control observed in the concentrations tested. Summed up: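 Cells seeded at 400/well onto pre-printed 10-point half-log dilutions (top 1 or 10 uM, 0.1% DMSO final), in triplicate, and grown 120 h at 37 C. Viability by Cell-Titer-Glo luminescence, blank-subtracted and normalised to DMSO; EC50 from four-parameter logistic fit, with observed minimal % of control recorded as Ymin-obs.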

A further experiment has as its target T1, WEE1 (Homo sapiens, UniProt P30291+Q96SW2).
T1 construct: C-terminal ePL-tagged (DiscoverX, Fremont, CA) full-length WEE1 expression construct; expressed in transfected cells; host or cells: LentiX-HEK293T (Invitrogen), lentiviral transduction; co-expressing GSPT1-GN (G576N, lacking the first 158 amino acids)
The experiment can be described thus: WEE1-ePL degradation assay (LentiX-WEE1-ePL-GSPT1-ND cells, InCELL Hunter luminescence, 4 h). The conditions noted are these: 293T-LentiX WEE1-ePL cells; for DC50: read-out: 293T-LentiX WEE1-ePL Degradation 4 hr (EC50). In kind it is cell-based. The method in brief: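 LentiX-HEK293T cells stably expressing C-terminally ePL-tagged full-length WEE1 were treated with compounds in a 10-point, 3-fold dilution series starting at 1 uM or 10 uM for 4 h at 37 °C. Remaining WEE1-ePL was detected by InCELL Hunter luminescence, and EC50, Ymin and Ymax came from a four-parameter logistic fit against DMSO control.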

Setting [1] is: lower limit of the fit (Ymin=0 luciferase inhibitor, Ymax DMSO control).
The mark [2] stands for this setting: lower limit of the fit (0 = luciferase inhibitor, Ymax = DMSO control).

Read-outs that look alike come from different tables or passages of the source.

As usually defined, the EC50 is the concentration giving half of the maximal effect. As for `COC[C@@H]1CC[C@@H](c2ccc3cc(CN4CC[C@H](Oc5ccc6c(c5)CN(C5CCC(=O)NC5=O)C6=O)C4)ccc3n2)C1` (stereo partly drawn) [3-(5-{[(3S)-1-({2-[(1R,3R)-3-(methoxymethyl)cyclopentyl]quinolin-6-yl}methyl)pyrrolidin-3-yl]oxy}-1-oxo-2,3-dihydro-1H-isoindol-2-yl)piperidine-2,6-dione], in the experiment with MKN45 cells, the EC50 turned out to be 3.05 nM and the “MKN45 Cell Prolif. 120 hr (Ymin-Obs)” value is 8.79. Also, the “293T-LentiX WEE1-ePL Degradation 4 hr (Ymin)” value on WEE1 (setting [1]) amounted to 34.2. In addition, the DC50 at WEE1 was 3.01 nM.

Regarding `O=C1CCC(N2Cc3cc(O[C@H]4CCN(Cc5ccc6nc(N7CC[C@H](O)C7)ccc6c5)C4)ccc3C2=O)C(=O)N1` (stereo partly drawn) [3-(5-{[(3S)-1-({2-[(3S)-3-hydroxypyrrolidin-1-yl]quinolin-6-yl}methyl)pyrrolidin-3-yl]oxy}-1-oxo-2,3-dihydro-1H-isoindol-2-yl)piperidine-2,6-dione], the EC50 in the experiment with MKN45 cells (growth inhibition) came to 11.4 nM. In the experiment with MKN45 cells, the “MKN45 Cell Prolif. 120 hr (Ymin-Obs)” value was found to be 7.1. Besides, the “293T-LentiX WEE1-ePL Degradation 4 hr (Ymin)” value on WEE1 (setting [2]) was determined as 36.5. The DC50 on WEE1 amounted to 10.4 nM.

For the molecule `C[C@@H]1CC(c2ccc3cc(CN4CC[C@H](Oc5ccc6c(c5)CN(C5CCC(=O)NC5=O)C6=O)C4)ccc3n2)CCO1` (stereo partly drawn) [3-(5-{[(3S)-1-({2-[(2R)-2-methyloxan-4-yl]quinolin-6-yl}methyl)pyrrolidin-3-yl]oxy}-1-oxo-2,3-dihydro-1H-isoindol-2-yl)piperidine-2,6-dione], the EC50 with MKN45 cells (growth inhibition) came to 10.9 nM. In the experiment on MKN45 cells, the “MKN45 Cell Prolif. 120 hr (Ymin-Obs)” value is given as 14.5. On WEE1 (setting [2]), the “293T-LentiX WEE1-ePL Degradation 4 hr (Ymin)” value stood at 29.54. On WEE1, the DC50 is 10.5 nM.

Consider `COC[C@@H]1CN(Cc2ccc3nc([C@@H]4CCOC(C)(C)C4)ccc3c2)C[C@H]1Oc1ccc2c(c1)CN([C@H]1CCC(=O)NC1=O)C2=O` [(3S)-3-(5-{[(3S,4S)-1-({2-[(4R)-2,2-dimethyloxan-4-yl]quinolin-6-yl}methyl)-4-(methoxymethyl)pyrrolidin-3-yl]oxy}-1-oxo-2,3-dihydro-1H-isoindol-2-yl)piperidine-2,6-dione], for which, in the experiment on MKN45 cells, the EC50 worked out at 0.247 nM and the “MKN45 Cell Prolif. 120 hr (Ymin-Obs)” value is on record as 7.692. The “293T-LentiX WEE1-ePL Degradation 4 hr (Ymin)” value at WEE1 (setting [1]) was determined as 25.48. Moreover, on WEE1, the DC50 is 0.726 nM.

Turning to `O=C1CCC(N2Cc3cc(O[C@H]4CCN(Cc5cnc6cccc(F)c6c5)C4)ccc3C2=O)C(=O)N1` (stereo partly drawn) [3-(5-{[(3S)-1-[(5-fluoroquinolin-3-yl)methyl]pyrrolidin-3-yl]oxy}-1-oxo-2,3-dihydro-1H-isoindol-2-yl)piperidine-2,6-dione], in the experiment with MKN45 cells (growth inhibition), the EC50 worked out at 309 nM. In addition, the “MKN45 Cell Prolif. 120 hr (Ymin-Obs)” value in the experiment on MKN45 cells was 35.14. In addition, the “293T-LentiX WEE1-ePL Degradation 4 hr (Ymin)” value on WEE1 (setting [2]) is reported as 31.52. Further, the DC50 at WEE1 came to 12 nM.

For `O=C1CC[C@H](N2Cc3cc(O[C@H]4CCN(Cc5cc(F)c6nc(N7CCOCC7)ncc6c5)C4)ccc3C2=O)C(=O)N1` [(3S)-3-(5-{[(3S)-1-{[8-fluoro-2-(morpholin-4-yl)quinazolin-6-yl]methyl}pyrrolidin-3-yl]oxy}-1-oxo-2,3-dihydro-1H-isoindol-2-yl)piperidine-2,6-dione], in the experiment on MKN45 cells, the EC50 is 7.59 nM and the “MKN45 Cell Prolif. 120 hr (Ymin-Obs)” value turned out to be 10.25. The “293T-LentiX WEE1-ePL Degradation 4 hr (Ymin)” value at WEE1 (setting [1]) stood at 32.63. For the same molecule, the DC50 on WEE1 was 3.13 nM.

For `O=C1CCC(N2Cc3cc(O[C@H]4CCN(Cc5ccc6nc(C7(O)CCC7)ccc6c5)C4)ccc3C2=O)C(=O)N1` (stereo partly drawn) [3-(5-{[(3S)-1-{[2-(1-hydroxycyclobutyl)quinolin-6-yl]methyl}pyrrolidin-3-yl]oxy}-1-oxo-2,3-dihydro-1H-isoindol-2-yl)piperidine-2,6-dione], the EC50 in the experiment with MKN45 cells (growth inhibition) was determined as 2.4 nM. Further, the “MKN45 Cell Prolif. 120 hr (Ymin-Obs)” value with MKN45 cells amounted to 7.94. The “293T-LentiX WEE1-ePL Degradation 4 hr (Ymin)” value on WEE1 (setting [2]) was found to be 29.5. On WEE1, the DC50 worked out at 2.58 nM.

For the origin of these results see US20240067632A1, “WEE1 Degrading Compounds and Uses Thereof” (Bristol-Myers Squibb Company, priority 2022, published 2024).
